# Experimental data: paper PMC5814047, “Peptidic inhibitors of insulin-degrading enzyme with potential for dermatological applications discovered via phage display” (PLoS ONE, 2018)
# “And” between values parts separate entries of the source, which are not always exact repeats. Equal values may be shown once. Bridge positions count the residues as written; N and C are the ends. Peptide text beside a SMILES is read from it.
# What was measured:
# [1] = test system: alpha-1 type I collagen in primary murine skin fibroblasts; test: Western blotting of cell-associated alpha-1 type I collagen; assay type: cell-based; conditions: for COL1A1 Adj. Band Vol. normalized to control on each gel: control = Day 0 COL1A1+DMSO sample; for Normalized COL1A1/GAPDH ratio, Mean: mean of 4 replicates; for COL1A1/GAPDH ratio normalized to Day 0, DMSO only control, Mean: mean of 4 replicates (Figure 4E)
# Protocol: (§1) Insulin promotes wound healing and overall skin health by affecting a number of processes, including cell proliferation, cell migration, and the production and secretion of ECM components, particularly type I collagen. We therefore assessed the ability of P12-3A to influence these processes in cultured skin fibroblasts and keratinocytes. To that end, primary mouse skin fibroblasts were grown for 4 d in multiple concentrations of insulin in the presence or absence of P12-3A, and insulin concentration over time was monitored by ELISA. […] Finally, the effects of P12-3A on collagen production in were assessed at both the transcriptional and the posttranslational level in confluent monolayers of fibroblasts. After 4 d of treatment with P12-3A (100 μM), mRNA levels for the major form of collagen, alpha-1 type I collagen (COL1A1), were quantified by RT-PCR and found to be increased to ~2.6 times the levels of untreated cells (Fig 4C). To assess overall levels of collagen production and secretion, we quantified levels of hydroxyproline, a modified amino acid present almost exclusively in collagen proteins. […] Western blotting also confirmed that mature, cell-associated collagen levels were increased in the presence of P12-3A (Fig 4E).
# (§2) Fig 4 Effects of P12-3A on cultured skin cells. A, Insulin concentrations as a function of time in logarithmically growing primary murine skin fibroblasts in the absence or presence of P12-3A (100 μM). […] Data are mean ± SEM of 4 independent replications. *P<0.05, **P<0.01. B, Proliferation of cells in the absence or presence of P12-3A (100 μM). Data are mean ± SEM of 6 independent replications. […] C,D,E, P12-3A (100 μM) potentiates insulin-induced collagen production in skin fibroblasts. Collagen production was assessed by COL1A1 mRNA levels (C), levels of hydroxyproline secreted into the medium (D), and cell-associated mature alpha-1 type I collagen levels detected by Western blotting (E). Data are mean ± SD of 4 independent replications. *P<0.05, **P<0.01. […] Migration of HaCaT cells 48 h after induction of a scratch wound in the presence of the indicated quantities of insulin and/or P12-3A (100 μM). Data are mean ± SEM of 6 independent replications. *P<0.05, **P<0.01.
# Protein was collected using the M-Per Mammalian Extraction Reagent and the concentration was quantified using the Pierce™BCA Protein Assay Kit according to manufacturer’s recommendations (Thermo Fisher Scientific, Waltham, MA, USA). Protein (30 μg/well) was separated SDS-PAGE under reducing conditions using Novex™ 10% polyacrylamide tris-glycine mini gels and transferred to nitrocellulose membranes as described. Briefly, membranes were blocked in 5% non-fat milk in tris-buffered saline supplemented with 0.2% Tween-20 (TBST), cut into segments and incubated for 1 h at room temperature with anti-alpha-1 type I collagen (1:5000) and anti-GAPDH (1:10,000) antibodies, washed extensively in TBST, then probed with anti-rabbit (1:20,000) or anti-goat (1:50,000) secondary antibodies, respectively, and detected by enhanced chemoluminescence using SuperSignal West Pico Substrate. Protein expression, normalized to GAPDH levels, was quantified using the band analysis tools of ImageLab software, version 4.1 (Bio-Rad Laboratories, Inc., Hercules, CA, USA).
# [2] = test system: HaCaT cells; test: In vitro scratch wound migration assay; assay type: cell-based; conditions: for migration of keratinocytes, single replicates (average of two observers) / migration of keratinocytes, Mean: 48 hr after scratching; for migration of keratinocytes, Mean: N 6
# Protocol: as §1, §2
# Cell migration in HaCaT cells after induction of scratch wounds was quantified essentially as described. Briefly, HaCaT cells maintained in optimized DMEM (AddexBio Technologies, San Diego, CA, USA) supplemented with 10% FBS, penicillin and streptomycin, were grown to confluency in 24-well tissue culture plates, and scratch wounds were induced with a 200-μL pipette tip. After growth for 48 h in the absence or presence of insulin (10 nM or 100 nM) and/or P12-3A (100 μM), cell migration distance was quantified by two independent, blinded observers using a Nikon TMS inverted light microscope (Nikon Corp., Melville, NY, USA) fitted with a ruler reticle.
# [3] = target: T1, MMP-7 (Homo sapiens, UniProt P09237); test: MMP Inhibitor Profiling Kit, MMP-7; assay type: biochemical; conditions: P12-3A 100 μM
# T1 construct: purchased Enzo Life Sciences, Inc
# T1 sequence (P09237 95-267): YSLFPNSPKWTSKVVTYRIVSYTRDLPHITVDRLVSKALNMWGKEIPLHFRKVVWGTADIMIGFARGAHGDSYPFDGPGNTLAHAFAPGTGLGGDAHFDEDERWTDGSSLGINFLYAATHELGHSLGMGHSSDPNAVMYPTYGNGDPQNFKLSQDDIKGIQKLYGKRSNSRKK
# Protocol: IDE activity was quantified by monitoring the degradation of Mca-[…](Dnp) (FRET1, 5 μM), fluoresceinated and biotinylated amyloid ß-protein (FAßB; 500 nM) or recombinant human insulin (50 nM) in PBS supplemented with 0.05% BSA. FRET1 degradation was measured by changes in fluorescence (λex = 340 nm, λem = 420 nm); FAßB degradation was monitored by fluorescence polarization (λex = 488 nm, λem = 525 nm), as described; and insulin degradation was quantified by ELISA. In vitro activity assays incorporated recombinant human IDE (1 nM) purified from bacteria. For quantitation of insulin degradation in primary murine skin fibroblasts, cells (1 x 10^5/well) were plated in 96-well plates and maintained in DMEM supplemented with 10% fetal bovine serum (FBS), 2mM glutamine, penicillin and streptomycin. After addition of insulin (10 nM or 100 nM), samples of conditioned medium were removed daily and quickly frozen, then insulin levels were quantified in parallel by ELISA according to manufacturer’s recommendations (Crystal Chem, Downers Grove, IL, USA). Assessment of the activity of P12-3A against a variety of matrix-metalloproteases was conducted using the Matrix Metalloproteinase (MMP) Inhibitor Profiling Kit, Fluorometric RED (Enzo Life Sciences, Inc., Farmingdale, NY, USA) according to manufacturer’s recommendations using the broad-spectrum MMP inhibitor, NNGH, as a positive control. […]
compound,measurement,setting,value
CC(C)C[C@H](NC(=O)[C@H](CO)NC(=O)[C@@H](N)CCC(N)=O)C(=O)N1CCC[C@H]1C(=O)N[C@@H](Cc1c[nH]c2ccccc12)C(=O)N[C@H]1CSSC[C@@H](C(=O)N[C@H](C(=O)N[C@H](C(N)=O)[C@@H](C)O)C(C)C)NC(=O)[C@H](Cc2c[nH]cn2)NC(=O)[C@@H]2CCCN2C(=O)[C@H](Cc2ccc(O)cc2)NC1=O [P12-3A] (H-QSLPWCYPHCVT-NH2; disulfide 6-10 (inferred)),"COL1A1/GAPDH ratio normalized to Day 0, DMSO only control","[1]; Day 0, individual replicates",102.562 and 78.683 and 108.954 and 116.015
same,Normalized COL1A1/GAPDH ratio from same sample,"[1]; Day 0, individual replicates",1.131 (2×) and 0.868 (2×) and 1.202 (2×) and 1.28 and 1.280
same,COL1A1 Adj. Band Vol. normalized to control on each gel,"[1]; Day 0, individual replicates",1.022 and 0.7932 and 0.9786 and 1.091
same,"Normalized COL1A1/GAPDH ratio, Mean",[1]; Day 0,1.120
same,"COL1A1/GAPDH ratio normalized to Day 0, DMSO only control, Mean",[1]; Day 0,102
same,Normalized COL1A1/GAPDH ratio from same sample,"[1]; Day 4, individual replicates",4.269 (2×) and 4.793 (2×) and 3.93 and 3.135 (2×) and 3.930
same,COL1A1 Adj. Band Vol. normalized to control on each gel,"[1]; Day 4, individual replicates",3.82 and 4.41 and 3.218 and 2.717
same,"Normalized COL1A1/GAPDH ratio, Mean",[1]; Day 4,4.032
same,"COL1A1/GAPDH ratio normalized to Day 0, DMSO only control, Mean",[1]; Day 4,345
same,"mature, cell-associated collagen levels",[1]; in the presence of P12-3A (100 μM),increased
same,"migration of keratinocytes, single replicates (average of two observers)",[2]; 10 nM ins,10.5 mm and 10.6 mm and 10.1 mm and 8.4 mm and 4.9 mm and 12.6 mm
same,"migration of keratinocytes, Mean",[2]; 10 nM ins,9.5 mm
same,"migration of keratinocytes, single replicates (average of two observers)",[2]; 100 nM ins,10.1 mm and 11.5 mm and 16.4 mm and 11.4 mm and 14.4 mm and 18.1 mm
same,"migration of keratinocytes, Mean",[2]; 100 nM ins,13.6 mm
same,migration of keratinocytes,"[2]; 100 μM P12-3A, different concentrations of insulin, 48 h",statistically significant increases
same,"migration of keratinocytes, single replicates (average of two observers)",[2]; no ins,5.0 mm and 5.9 mm and 3.4 mm and 8.3 mm and 3.2 mm and 4.0 mm
same,"migration of keratinocytes, Mean",[2]; no ins,4.9 mm
same,inhibition at 100 µM,[3],~18%
